Measurements published in US10702571B2, “Materials for cathepsin B enhancement and methods of use” (The University of North Carolina at Pembroke, priority 2015, dated 2020).
Where a SMILES comes first, the peptide text is derived from it. The star is where a group is joined. Cbz = O=C(OCc1ccccc1)*

Tests used:
[1] = system: 30-kDa active form of cathepsin B (CatB-30); assay: Hippocampal slice cultures treated for two days, immunoblot for active cathepsin B; assay type: cell-based, rodent; conditions: for levels of cathepsin B (summary in words) / effect of the cathepsin B positive modulator PADK in combination with flavonol (summary in words): summary in the discussion; for increase in CatB-30 by flavonol alone: 5 μM flavonol alone for 2 days; for increase in cathepsin B (CatB-30): vs non-treated slices, statistically significant
Protocol: FIG. 1. Cathepsin B positive modulation by flavonols—members of the flavonoid class of polyphenolic compounds. Flavonols of quercetin (Q), fisetin (F), and myricetin (M) were applied daily to rodent hippocampal slice cultures. After two (2) days, non-treated (NT) and treated slices were harvested, homogenates were prepared, and equal protein aliquots were assessed by immunoblot to label the 30-kDa active form of cathepsin B (CatB-30). […] FIG. 2. Cathepsin B positive modulation by Z-Phe-Pro-OH. The compound Z-Phe-Pro-OH was applied to rodent hippocampal slice cultures for two (2) days. […] FIG. 3. Quercetin enhances the effect of the cathepsin B positive modulator Z-Phe-Ala-diazomethylketone (PADK). Quercetin (Q) at 5 μM was added to the daily PADK treatments of rodent hippocampal slice cultures. After two (2) days, non-treated (NT) and treated slices were harvested, homogenates were prepared, and equal protein aliquots were assessed by immunoblot to label the active form of cathepsin B (CatB-30). Paired, two-tailed t-test among distinct immunoblots found a statistically significant enhancement of the PADK effect by quercetin (p=0.0167; pairing was effective: p=0.0014). An enhancement of 60-70% occurred, whereas 5 μM quercetin alone for 2 days caused only a 21% increase in CatB-30. FIG. 4. Fisetin and myricetin enhance the cathepsin B positive modulation produced by 10 μM Z-Phe-Ala-diazomethylketone (PADK). Fisetin at 5 μM (top graph) or myricetin at 5 μM (bottom graph) were added to the two daily PADK treatments of rodent hippocampal slice cultures. The non-treated (NT) and treated slices were harvested, homogenates were prepared, and equal protein aliquots were assessed by immunoblot to label the active form of cathepsin B (CatB-30). […] An enhancement of 95-140% was produced by fisetin, whereas 5 μM fisetin alone for two (2) days caused only a 40% increase in CatB-30. FIG. 5. Dose-dependent enhancement of the PADK effect on CatB by flavonols. Quercetin (Q), fisetin (F), and myricetin (M) at 5-10 μM were applied daily to rodent hippocampal slice cultures that were also treated with 3 μM PADK (top graph) or 10 μM PADK (bottom graph). After two (2) days, non-treated (NT) and treated slices were harvested, homogenates were prepared, and equal protein aliquots were assessed by immunoblot to label the 30-kDa active form of cathepsin B (CatB-30). […] The 10 μM PADK slices indicate that each flavonol at the lower concentration has an enhancing effect, but the effect is eliminated or reduced when the flavonol concentration is doubled. As described in FIG. 1, flavonols such as quercetin (Q), fisetin (F), and myricetin (M) were applied daily to rodent hippocampal slice cultures. After two (2) days, non-treated (NT) and treated slices were harvested, homogenates were prepared, and equal protein aliquots were assessed by immunoblot to label the 30-kDa active form of cathepsin B (CatB-30). As described in FIG. 2, the compound of Z-Phe-Pro-OH was applied to rodent hippocampal slice cultures for two (2) days. As described in FIG. 3, the flavonol of quercetin (Q) was added at 5 μM to the daily PADK treatments of rodent hippocampal slice cultures. After two (2) days, non-treated (NT) and treated slices were harvested, homogenates were prepared, and equal protein aliquots were assessed by immunoblot to label the active form of cathepsin B (CatB-30). As described in FIG. 4, the flavonols of fisetin at 5 μM (top graph of FIG. 4) or myricetin at 5 μM (bottom graph of FIG. 4) were added to the two daily PADK treatments of rodent hippocampal slice cultures. The non-treated (NT) and treated slices were harvested, homogenates were prepared, and equal protein aliquots were assessed by immunoblot to label the active form of cathepsin B (CatB-30). As described in FIG. 5, the flavonols of quercetin (Q), fisetin (F), and myricetin (M) at 5-10 μM were applied daily to rodent hippocampal slice cultures that were also treated with 3 μM PADK (top graph) or 10 μM PADK (bottom graph). […]

synaptic marker GluR1 = assay: Oral dosing in peanut butter pellets to middle-aged mice, dissected hippocampi: synaptic marker GluR1; assay type: in vivo; conditions: oral twice daily for 11 days, hippocampus, vs control compound
Protocol: (§1) Compounds in peanut butter pellets were administered to middle-aged mice orally twice daily for 11 days, then dissected hippocampi were compared to control mice that received the same oral dosing with control compound.

CatB-30 = assay: Oral dosing in peanut butter pellets to middle-aged mice, dissected hippocampi: CatB-30; assay type: in vivo; conditions: oral twice daily for 11 days, hippocampus, vs control compound
Protocol: as §1

[2] = flavonol at 5 and 10 μM daily with 3 μM PADK, two days

Compound	levels of cathepsin B (summary in words) [1]	enhancement of the PADK effect on CatB-30 ([1]; 5 μM fisetin added to two daily treatments with 10 μM PADK)	increase in CatB-30 by flavonol alone [1]	increase in cathepsin B (CatB-30) ([1]; 5-30 μM fisetin applied daily, two days)	enhancement of the PADK effect on CatB-30 (in words) [1, 2]	effect of the cathepsin B positive modulator PADK in combination with flavonol (summary in words) [1]	enhancement of the PADK effect on CatB-30 (in words) ([1]; 5 μM myricetin added to two daily treatments with 10 μM PADK, one-tailed p=0.033)	enhancement of the PADK effect on CatB-30 ([1]; 5 μM quercetin added to the daily PADK treatments, two days)	increase in cathepsin B (CatB-30) ([1]; 5-20 μM quercetin applied daily, two days)	synaptic marker GluR1 (synaptic marker GluR1)	CatB-30 in female mice (CatB-30; female middle-aged mice)	CatB-30 in male mice (CatB-30; male middle-aged mice)
O=C(N[C@@H](Cc1ccccc1)C(=O)N1CCC[C@H]1C(=O)O)OCc1ccccc1 [Z-Phe-Pro-OH, N-carbobenzoxy-L-phenylalanyl-L-proline] (Cbz-Phe-Pro-OH)	increase levels of cathepsin B	–	–	–	–	–	–	–	–	–	–	–
O=c1c(O)c(-c2ccc(O)c(O)c2)oc2cc(O)ccc12 [fisetin]	increase levels of cathepsin B	95-140%	40%	1.65 fold	only the higher 10 μM concentration of fisetin enhanced the effect	enhance the effect	–	–	–	–	–	–
O=c1c(O)c(-c2cc(O)c(O)c(O)c2)oc2cc(O)cc(O)c12 [myricetin]	increase levels of cathepsin B	–	–	–	no enhancing effect at either concentration	enhance the effect	smaller enhancement	–	–	–	–	–
O=c1c(O)c(-c2ccc(O)c(O)c2)oc2cc(O)cc(O)c12 [quercetin]	increase levels of cathepsin B	–	21%	–	both 5 and 10 μM quercetin enhanced the PADK effect	enhance the effect	–	60-70%	1.96 fold	enhanced synaptic marker GluR1	increased CatB-30 in female mice	increased CatB-30 in male mice
